Measurements: patent US20250099403A1, “IDENTIFICATION OF ACTIVITIES OF GUT MICROBE METABOLITES” (UNIVERSITY OF SOUTH CAROLINA, priority 2023, published 2025)

Legend:
[1] = tested on: Primary mouse macrophages; assay: inflammatory cytokine expression in primary mouse macrophages, agent alone (RT-qPCR); assay type: cell-based; conditions: agent by itself, n=3
Description: (§1) Primary mouse macrophages were treated with SoL A (as a representative of SoLs) either alone or together with LPS (an agonist of TLR4) or Pam3CSK4 (an agonist of TLR1/2) and the expression of three inflammatory cytokines was measured (IL-6, TNFα, and IL-1β).
(§2) Preparation and treatment of macrophages. Primary mouse macrophages were prepared by first introducing 3 mL of 3% thioglycolate to mice via intraperitoneal injection. After 3 days, 10 mL of chilled PBS was introduced intraperitoneally to flush out macrophages. The cell suspension was then separated by centrifugation at 300×g for 5 minutes. Cells were seeded in culture dishes containing DMEM with 10% FBS for 1 hour before being washed with serum-free DMEM two times to remove unattached cells. The cells were incubated in serum-free DMEM for 16 hours before treatment. To treat the macrophages, cells were incubated for 6 to 24 hours in DMEM without FBS with addition of LPS (Sigma-Aldrich), Pam3CSK4 (Invivogen), or SoL A. Cells were finally washed twice with Dulbecco's phosphate-buffered saline before being lysed for total RNA or protein extraction.
mRNA extraction and RT-qPCR in macrophage-based assays. […] The quality and quantity of RNA was then determined using a nanodrop and 1000 ng of mRNA from each sample was used for cDNA synthesis using a First-strand cDNA Synthesis System (Marligen Bioscience), qPCRs reactions were prepared in a 20 uL final volume containing Fast Start Universal SYBR Green Master (Rox) (Roche Applied Science), cDNA template, deionized water, and primers and probes for IL-1β, TNFα, IL-6, and the 18S rRNA which was used as a housekeeping gene Cycling conditions were 95° C. for 10 min followed by 40 cycles of 95° C. for 10 seconds, 60° C. for 15 seconds, and 68° C. for 20 seconds, then a melting curve analysis from 60° C. to 95° C. every 0.2° C. was obtained. […] Relative gene expression levels were calculated using the ΔΔCT method and expression levels of 18S were used to normalize the results.

[2] = tested on: TLR4; assay: LPS-induced cytokine expression in primary mouse macrophages (RT-qPCR); assay type: cell-based; conditions: SoL A together with LPS, p≤0.0001
Description: as §1
Preparation and treatment of macrophages. Primary mouse macrophages were prepared by first introducing 3 mL of 3% thioglycolate to mice via intraperitoneal injection. After 3 days, 10 mL of chilled PBS was introduced intraperitoneally to flush out macrophages. The cell suspension was then separated by centrifugation at 300×g for 5 minutes. […]
mRNA extraction and RT-qPCR in macrophage-based assays. […] The quality and quantity of RNA was then determined using a nanodrop and 1000 ng of mRNA from each sample was used for cDNA synthesis using a First-strand cDNA Synthesis System (Marligen Bioscience), qPCRs reactions were prepared in a 20 uL final volume containing Fast Start Universal SYBR Green Master (Rox) (Roche Applied Science), cDNA template, deionized water, and primers and probes for IL-1β, TNFα, IL-6, and the 18S rRNA which was used as a housekeeping gene Cycling conditions were 95° C. for 10 min followed by 40 cycles of 95° C. for 10 seconds, 60° C. for 15 seconds, and 68° C. for 20 seconds, then a melting curve analysis from 60° C. to 95° C. every 0.2° C. was obtained. […]

[3] = tested on: TLR1/2; assay: Pam3CSK4-induced cytokine expression in primary mouse macrophages (RT-qPCR); assay type: cell-based
Description: as §1
On FIG. 16, bars represent mean±standard error. For each treatment, n=3. Significance was determined using Student's t test: * p<0.05, **** p<[…] 0.0001.
as §2, with “To treat the macrophages, cells were incubated for 6 to 24 hours in DMEM without FBS with addition of LPS (Sigma-Aldrich), Pam3CSK4 (Invivogen), or SoL A. Cells were finally washed twice with Dulbecco's phosphate-buffered saline before being lysed for total RNA or protein extraction.” left out
mRNA extraction and RT-qPCR in macrophage-based assays. […] Relative gene expression levels were calculated using the ΔΔCT method and expression levels of 18S were used to normalize the results.

[4] = molecular target: T1, MD-2 (Homo sapiens, UniProt Q9Y6Y9); assay: ELISA-based displacement assay with biotinylated LPS; assay type: binding
T1 construct: purchased Novus Biologicals
T1 sequence (Q9Y6Y9 19-160): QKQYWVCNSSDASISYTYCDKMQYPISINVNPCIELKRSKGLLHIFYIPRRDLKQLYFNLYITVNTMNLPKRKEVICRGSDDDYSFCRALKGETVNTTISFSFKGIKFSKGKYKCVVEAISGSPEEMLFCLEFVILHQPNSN
Description: To experimentally determine if SoLs A and B bind to MD-2 and to what extent the SoLs compete with LPS for binding to MD-2, an ELISA-based displacement assay was conducted. Taking advantage of biotinylated LPS, which retains the activity of unconjugated LPS, absorbance generated by an HRP-linked streptavidin probe was measured to determine the relative amount of MD-2 that was bound with biotin-LPS as opposed to MD-2 bound with SoL A or B. 0.1, 1.0, and 10 µM concentrations of SOL A or B and 1 ng/ml biotin-LPS were administered to MD-2 in three sequences: 1) Sol first followed by LPS 1 hour later, 2) LPS first followed by Sol 1 hour later, and 3) both SoL A or B and LPS at the same time.
ELISA displacement assay. Solid-phase sandwich ELISA kits were purchased from Invitrogen. The ELISA experiments were performed according to the kit instructions, using 50 nM hMD-2 (Novus Biologicals), 1 ng/mL LPS-EB Biotin (Invivogen), and 0.1, 1.0, and 10 µM purified SoL A. SOL A was added to the assay 1 hour before, 1 hour after, or simultaneously with LPS-EB Biotin. Absorbance was measured at 450 nm using a BioTek microplate reader.

[5] = tested on: Macrophages; assay: Western blot of TLR4 downstream signaling in LPS-treated macrophages; assay type: cell-based; conditions: 100 ng/ml LPS, 30 minutes
Description: Macrophages were treated with 100 ng/ml LPS in the presence of increasing concentrations of Sol A or B (from 0 to 20 μM) for 30 minutes. Following treatment, all cellular protein was extracted using MPER lysis buffer (Thermo Scientific). Protein samples were loaded onto SDS-PAGE gels for separation, then transferred to nitrocellulose membranes (Amersham Biosciences). Primary antibodies and HRP-conjugated secondary antibodies (Cell Signaling Technology) were used to detect target proteins. Signal was detected using an ECL kit (Thermo Scientific). […] The housekeeping gene β-Actin was used as a loading control.

[6] = tested on: THP-1 monocytes; assay: M1 polarization of THP-1 derived macrophages (RT-qPCR of markers); assay type: cell-based; conditions: 10 µM SoL A with IFN-γ and LPS, 24 hours, n=3
Description: (§3) THP-1 monocytes were treated with IFN-γ and LPS to induce M1 polarization or IL-4 and IL-1β to induce M2 polarization. Successful induction of M1 and M2 polarization was confirmed by morphology changes and subsequent RT-qPCR quantification of cytokine profiles.
(§4) For all treatments, n=3 and significance was determined using one-way ANOVA: 0.001<p<0.01, *** 0.0001<p<0.001, and **** p<0.0001.
(§5) THP-1 monocytes were maintained in RPMI16 with 10% heat inactivated FBS, 1% Penicillin-Streptomycin-Ampotericin B, and 50 μM 2-mercaptoethanol prior to differentiation. The cells were differentiated into macrophages with 150 nM PMA for 48 hours. M1 polarization was induced by adding 20 ng/ml IFN-γ and […] LPS for 24 hours. M2 polarization was induced by adding 20 ng/ml IL-4 and 20 ng/ml IL-1β for 24 hours. In all tests, 10 µM Sol A was added at the same time as M1 and M2 differentiation agents. After 24 hours of treatment, total RNA was collected, and RT-qPCR was performed as described above.

[7] = tested on: THP-1 monocytes; assay: M2 polarization of THP-1 derived macrophages (RT-qPCR of markers); assay type: cell-based; conditions: 10 µM SoL A with IL-4 and IL-1β, 24 hours, n=3
Description: as §3, §4, §5

[8] = tested on: peritoneal macrophages; assay: inflammatory cytokine expression in macrophages treated with purified SoL A (qRT-PCR); assay type: cell-based; conditions: 10UM (FIG. 32 legend)
[9] = in vivo inflammation after intraperitoneal injection of SoL A; parameters: species or system mouse; conditions: 1 mg/kg i.p.
Description: To test whether SoL A can induce inflammation in vivo, mice were treated by intraperitoneal (i.p.) injection of 1 mg/kg of SOL A. At 2 hrs post-injection, FACS analysis of immune cells in the peritoneal exudate was performed.

[10] = piroxicam-accelerated Il10-deficient mouse IBD model; assay type: in vivo
Description: Experimental validation of the predictions of Example 1 were carried out using a mouse model of IBD. […] Stimulation of mucosal Toll-like receptors (TLRs) stemming from this mucosal barrier breakdown was another factor in the selection of this model, as it has been previously shown that SoL A suppresses LPS-induced inflammation and LPS is well-known to activate TLR signaling. […]
Fecal material was collected from IBD 1/10−/−+piroxicam (n=7, female) and pre-IBD control//10−/−mice (n=4, female), extracted metabolites, and the abundance of SoLs was measured by targeted metabolomics using high performance liquid chromatography (HPLC)-high resolution mass spectrometry (HRMS). […] Metabolites with m/z corresponding to major SoLs were detected, specifically SoLs A and B, in all samples tested and their identities were unambiguously determined by HPLC-MS/MS. […]
Peak areas were calculated using TICs obtained after MS/MS fragmentation and used to measure the abundance of SoLs A and B. Significance was determined using Student's t-test. […] Significance was determined using Mann-Whitney U test. […]
Piroxicam-accelerated 1110−/−mouse IBD model and analysis. […] Mice were euthanized at 18 days to collect tissues for assessment and intestinal contents for quantification of SoLs. […] Inflammation scores of colon sections were blindly assessed using an Echo Revolve light microscope and accompanying software. […]

[11] = SoL added first, LPS 1 hour later, vs LPS first or together, all concentrations 0.1, 1.0, 10 µM, 1 ng/ml biotin-LPS
[12] = moving from low to high concentrations of SoL (0.1, 1.0, 10 µM)

Row | Compound | expression of inflammatory cytokines (IL-6, TNFα, IL-1β) compared to control [1] | percent absorbance (MD-2 bound with biotin-LPS) [4, 11] | percent absorbance (MD-2 bound with biotin-LPS) [4, 12] | LPS-induced IκBα degradation ([5]; SoL 0 to 20 μM) | LPS-induced phosphorylation of p38 and ERK1/2 ([5]; SoL 0 to 20 μM) | LPS-induced phosphorylation of p38 and ERK1/2 ([5]; SoL at 20 µM) | further results
1 | CC(C)CCCCCCCCCCC[C@@H](O)CC(=O)N[C@@H](CS(=O)(=O)O)[C@H](O)CCCCCCCCCCCC(C)C [SoL A, sulfobacin A] | mild to moderate effect | marked decrease | decreased dramatically | concentration-dependently suppressed | reduced LPS-induced phosphorylation of p38 and ERK1/2 in a concentration-dependent manner | almost completely blocked | expression of all three cytokines (IL-6, TNFα, IL-1β) induced by LPS [2]: significantly suppress; Pam3CSK4-induced IL-6 and TNFα expression ([3]; SoL A together with Pam3CSK4): inhibited Pam3CSK4-induced IL-6 and TNFα to a smaller extent; IL-1β expression induced by Pam3CSK4 ([3]; SoL A together with Pam3CSK4, p≤0.05): increasing; production of M1-polarized macrophage markers IL-6, CXCL10, IL-12β, and TNFα [6]: significantly reduced; effect on M2 polarization (marker expression) [7]: mostly non-significant effect; expression levels of pro-inflammatory cytokines IL-1a, IL-1B, IL-6, and TNFα [8]: significantly increased; monocytes and neutrophils in the peritoneal exudate ([9]; 2 hrs post-injection, FACS): more monocytes (Mono) and neutrophils (Neut) were recruited; serum IL-6 levels ([9]; ELISA): significantly and consistently increased
2 | lipopolysaccharide [LPS] | significant induction | – | – | – | – | – | –
3 | Pam3CSK4 | significant induction | – | – | – | – | – | –
4 | CC(C)CCCCCCCCCCCC(=O)N[C@@H](CS(=O)(=O)O)[C@H](O)CCCCCCCCCCCC(C)C [SoL B, sulfobacin B] | – | marked decrease | decreased dramatically | concentration-dependently suppressed | reduced LPS-induced phosphorylation of p38 and ERK1/2 in a concentration-dependent manner | almost completely blocked | –
5 | CN1C(C(=O)Nc2ccccn2)=C(O)c2ccccc2S1(=O)=O [piroxicam] | – | – | – | – | – | – | histological analysis of mouse distal colon ([10]; 1/10−/− mice, diet with 100 ppm piroxicam, 18 days): induced intestinal inflammation; colon expression of inflammatory markers TNFα, NOS2, IL-6, and IL-1β ([10]; 1/10−/−+piroxicam mice vs control, Mann-Whitney U test): significantly increased
